According to US20230271949A1, “GLP-1R MODULATING COMPOUNDS” (ASCLETIS BIOSCIENCE CO., LTD., priority 2022, published 2023):

Each compound was assayed against GLP-1R (Homo sapiens, UniProt P43220) (assay: GLP-1R agonist cAMP stimulation assay (HTRF cAMP)). Settings: HEK293 cell line expressing GLP-1 target; HTRF cAMP agonist mode, 30 min at RT.
Assay type: cell-based
Summary of the method: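 GLP-1R-expressing cells were stimulated with 10-point, 3-fold compound dilutions for 30 min at RT; HTRF cAMP detection reagents were then added for 60 min and the 665/615 ratio read. Ratios were converted to cAMP via a standard curve and % activity scaled between DMSO and top-concentration GLP-1(7-37) reference wells.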

Sequence of GLP-1R (P43220 24-463): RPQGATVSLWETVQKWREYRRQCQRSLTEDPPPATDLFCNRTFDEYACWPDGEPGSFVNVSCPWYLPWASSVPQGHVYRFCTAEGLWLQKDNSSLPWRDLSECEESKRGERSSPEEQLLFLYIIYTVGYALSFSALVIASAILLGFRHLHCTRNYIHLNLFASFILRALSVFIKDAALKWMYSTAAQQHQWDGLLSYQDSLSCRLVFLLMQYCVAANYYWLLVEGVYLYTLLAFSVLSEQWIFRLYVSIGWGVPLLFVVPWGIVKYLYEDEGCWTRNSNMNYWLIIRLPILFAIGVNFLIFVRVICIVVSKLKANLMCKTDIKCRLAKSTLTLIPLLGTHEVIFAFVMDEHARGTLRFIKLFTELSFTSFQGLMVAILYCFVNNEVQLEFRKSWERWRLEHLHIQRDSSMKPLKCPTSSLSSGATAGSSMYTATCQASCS

| SMILES | EC50 [nM] |
| --- | --- |
| O=C(Nc1ccc2c(c1)nc(C(F)(F)N1CC=C(c3cccc(OCc4ccc(Cl)cc4F)n3)CC1)n2C[C@@H]1CCO1)c1ccc2[nH]nc(C3CC3)c2c1 [Compound 258] | 31.8 |
| Cc1n[nH]c2c(C(F)(F)F)cc(C(=O)Nc3ccc4c(c3)nc(CN3CC=C(c5cccc6c5OC(C)(c5ccc(Cl)cc5F)O6)CC3)n4C[C@@H]3CCO3)cc12 (stereo partly drawn) [Compound 313] | 1.39 |
| O=C(Nc1ccn2ncc(Cl)c2c1)c1ccc2c(c1)nc(CN1CC=C(c3cccc(OCc4ccc(Cl)cc4F)n3)CC1)n2CC1CCO1 (stereo not drawn) [Compound 149] | 34.6 |
| COC(=O)[C@@H]1CC(F)(F)CN1C(=O)CNC(=O)c1ccc2c(c1)nc(CN1CC=C(c3cccc(OCc4ccc(Cl)cc4F)n3)CC1)n2C[C@@H]1CCO1 [Compound 69] | 70.5 |
| Cc1n[nH]c2ccc(C(=O)Nc3ccc4c(c3)nc(CN3CC=C(c5cccc(OCc6ccc(Cl)cc6F)n5)CC3)n4C[C@@H]3CCO3)c(F)c12 [Compound 224] | 3.29 |
| Cc1n[nH]c2c(C(F)(F)F)cc(NC(=O)c3ccc4c(c3)nc(CN3CC=C(c5cccc6c5OC(C)(c5ccc(Cl)cc5F)O6)CC3)n4CC3CCO3)cc12 (stereo not drawn) [Compound 295] | 2.19 |
| CNS(=O)(=O)Cc1ccc2[nH]cc(CCNC(=O)c3ccc4c(c3)nc(CN3CCC(c5cccc(OCc6ccc(Cl)cc6F)n5)CC3)n4CCOC)c2c1 [Compound 39] | 286 |
| COCCn1c(CN2CCC(c3cccc(OCc4ccc(Cl)cc4F)n3)CC2)nc2cc(C(=O)NCc3ccc4[nH]c(=O)[nH]c4c3)ccc21 [Compound 38] | 17.7 |
| Cc1n[nH]c2c(Cl)cc(NC(=O)c3ccc4c(c3)nc(CN3CCC(c5cccc(OCc6ccc(Cl)cc6F)n5)CC3)n4C[C@@H]3CCO3)cc12 [Compound 110] | 4.45 |
| Cc1n[nH]c2ccc(C(=O)Nc3ccc4c(c3)nc(CN3CC=C(c5cccc(OCc6ccc(Cl)cn6)n5)CC3)n4C[C@@H]3CCO3)cc12 [Compound 198] | 0.35 |
| Cc1n[nH]c2c(Cl)cc(NC(=O)c3ccc4c(c3)nc(CN3CC=C(c5cccc6c5O[C@@](C)(c5ccc(Cl)cc5F)O6)C[C@@H]3C)n4CC3CCO3)cc12 (stereo partly drawn) [Compound 329] | 1.66 |
| COC(=O)[C@@H]1CC(F)(F)CN1C(=O)CNC(=O)c1ccc2c(c1)nc(CN1CCC(c3cccc(OCc4ccc(Cl)cc4F)n3)CC1)n2C[C@@H]1CCO1 [Compound 64] | 151 |
| COCCn1c(CN2CCC(c3cccc(OCc4ccc(Cl)cc4F)n3)CC2)nc2cc(C(=O)NC3Cc4cc(C)c(O)cc4C3)ccc21 (stereo not drawn) [Compound 43] | 256 |
| O=C(CNC(=O)c1ccc2c(c1)nc(CN1CCC(c3cccc(OCc4ccc(Cl)cc4F)n3)CC1)n2C[C@@H]1CCO1)N[C@@H](CO)C(=O)O [Compound 49] | 2.47 |
| O=C(Nc1ccc2c(c1)C1(CC1)C(=O)N2)c1ccc2nc(CN3CC=C(c4cccc(OCc5ccc(Cl)cc5F)n4)CC3)n(C[C@@H]3CCO3)c2c1 [Compound 266] | 3.19 |
| Cc1n[nH]c2c(C)cc(NC(=O)c3cc4c(nc(CN5CC=C(c6cccc(OCc7ccc(Cl)cc7F)n6)CC5)n4C[C@@H]4CCO4)s3)cc12 [Compound 405] | 39.9 |
| CC1(c2ccc(Cl)cc2F)Oc2cccc(C3=CCN(Cc4nc5cc(C(=O)Nc6ccc7[nH]nc(F)c7c6)ccc5n4CC4CCO4)CC3)c2O1 (stereo not drawn) [Compound 292] | 8.73 |
| Cc1n[nH]c2c(C3CC3)cc(NC(=O)c3ccc4c(c3)nc(CN3CCC(c5cccc(OCc6ccc(Cl)cc6F)n5)CC3)n4C[C@@H]3CCO3)cc12 [Compound 118] | 8.31 |
| COCCn1c(CN2CCC(c3cccc(OCc4ccc(Cl)cc4F)n3)CC2)nc2cc(C(=O)NCc3ccc4[nH]ccc4c3)ccc21 [Compound 21] | 160 |
| Cc1n[nH]c2ccc(NC(=O)c3ccc4nc(CN5CC=C(c6cccc(OCc7ccc(Cl)cc7F)n6)CC5)n(CC5CCO5)c4c3)cc12 (stereo not drawn) [Compound 263] | 5.78 |
| Cc1n[nH]c2cc(F)c(NC(=O)c3ccc4c(c3)nc(CN3CC=C(c5cccc(OCc6ccc(Cl)cc6F)n5)CC3)n4C[C@@H]3CCO3)cc12 [Compound 174] | 2.13 |

Further lines, results first:

| EC50 [nM] | SMILES |
| --- | --- |
| 0.91 | Cc1cc(NC(=O)c2ccc3c(c2)nc(CN2CC=C(c4cccc5c4OC(C)(c4ccc(Cl)cc4F)O5)CC2)n3C[C@@H]2CCO2)cc2[nH]c(=O)[nH]c12 (stereo partly drawn) [Compound 303] |
| 0.76 | N#Cc1ccc(COc2cccc(C3=CCN(Cc4nc5cc(C(=O)Nc6cc(F)c7c(c6)C6(CC6)C(=O)N7)ccc5n4C[C@@H]4CCO4)CC3)n2)c(F)c1 [Compound 179] |
| 0.81 | CC(C)c1n[nH]c2ccc(C(=O)Nc3ccc4c(c3)nc(CN3CCC(c5cccc6c5OC(C)(c5ccc(C#N)cc5F)O6)CC3)n4CC3CCO3)cc12 (stereo not drawn) [Compound 347] |
| 0.91 | Cc1n[nH]c2ccc(C(=O)Nc3ccc4c(c3)nc(C3CC35CCN(c3cccc(OCc6ccc(Cl)cc6F)n3)CC5)n4CC3CCO3)cc12 (stereo not drawn) [Compound 246] |
| 0.21 | Cc1n[nH]c2c(C)cc(NC(=O)c3ccc4c(c3)nc(CN3CC=C(c5cccc(OCc6ccc(C#N)cc6F)n5)CC3)n4C[C@@H]3CCO3)cc12 [Compound 181] |
| 1.03 | C=C(C)c1n[nH]c2ccc(C(=O)Nc3ccc4c(c3)nc(CN3CC=C(c5cccc6c5OC(C)(c5ccc(Cl)cc5F)O6)CC3)n4CC3CCO3)cc12 (stereo not drawn) [Compound 315] |
| 1.05 | Cc1n[nH]c2c(C(F)(F)F)cc(C(=O)Nc3ccc4c(c3)nc(Cc3ccc(-c5cccc6c5OC(C)(c5ccc(C#N)cc5F)O6)cc3F)n4C[C@@H]3CCO3)cc12 (stereo partly drawn) [Compound 325] |
| 0.78 | Cc1n[nH]c2c(C(F)(F)F)cc(C(=O)Nc3ccc4c(c3)nc(CN3CC=C(c5cccc(OCc6ccc(Cl)cn6)n5)CC3)n4C[C@@H]3CCO3)cc12 [Compound 213] |
| 0.44 | Cc1cc(C(=O)Nc2ccc3c(c2)nc(C2CC24CCN(c2cccc(OCc5ccc(Cl)cc5F)n2)CC4)n3C[C@@H]2CCO2)cc2[nH]c(=O)[nH]c12 (stereo partly drawn) [Compound 249] |
| 1.21 | O=C(Nc1ccc2c(c1)nc(CN1CC=C(c3cccc(OCc4ccc(Cl)cc4F)n3)CC1)n2C[C@@H]1CCO1)c1ccc2[nH]nc(C(F)F)c2c1 [Compound 219] |
| 0.31 | O=C(Nc1ccc2c(c1)nc(CN1CC=C(c3cccc(OCc4ccc(Cl)cc4F)n3)CC1)n2C[C@@H]1CCO1)c1ccc2[nH]nnc2c1 [Compound 241] |
| 0.98 | Cc1n[nH]c2c(C)cc(NC(=O)c3ccc4c(c3)nc(CN3CCC(c5cccc(OCc6cc(F)c(C#N)s6)n5)CC3)n4C[C@@H]3CCO3)cc12 [Compound 376] |
| 1.25 | CCc1n[nH]c2ccc(NC(=O)c3ccc4c(c3)nc(CN3CCC(c5cccc(OCc6ccc(C#N)cc6F)n5)CC3)n4C[C@@H]3CCO3)cc12 [Compound 135] |
| 0.44 | Cc1n[nH]c2c(C(F)F)cc(C(=O)Nc3ccc4c(c3)nc(CN3CC=C(c5cccc(OCc6ccc(Cl)cc6F)n5)CC3)n4C[C@@H]3CCO3)cc12 [Compound 220] |
| 0.38 | Cc1n[nH]c2ccc(NC(=O)c3ccc4c(c3)nc(CN3CCC(c5cccc(OCc6ccc(C#N)cc6F)n5)CC3)n4C[C@@H]3CCO3)cc12 [Compound 133] |
| 1.02 | Cc1cc(NC(=O)c2ccc3c(c2)nc(CN2CC=C(c4cccc(OCc5ccc(Cl)cc5F)n4)CC2)n3C[C@@H]2CCO2)cc2c(C(F)F)n[nH]c12 [Compound 169] |
| 0.77 | O=C(Nc1cc(C(F)(F)F)c2c(c1)C1(CC1)C(=O)N2)c1ccc2c(c1)nc(CN1CC=C(c3cccc(OCc4ccc(Cl)cc4F)n3)CC1)n2C[C@@H]1CCO1 [Compound 157] |
| 0.18 | Cc1n[nH]c2c(F)cc(C(=O)Nc3ccc4c(c3)nc(CN3CC=C(c5cccc(OCc6ccc(C#N)cc6F)n5)CC3)n4C[C@@H]3CCO3)cc12 [Compound 225] |
